Experimental data: patent US20210255193A1, “LYSINE REACTIVE PROBES AND USES THEREOF” (The Scripps Research Institute, priority 2017, published 2021)
One block for each compound: values may come before it.

Legend:
PLIN3 Perilipin-3 = target: T1, PLIN3 Perilipin-3 (Homo sapiens, UniProt O60664); test: competitive isoTOP-ABPP; type: binding; design: key to isoTOP-ABPP reactivity ratio at lysine O60664_K257 / isoTOP-ABPP reactivity ratio at lysine O60664_K140: R = MS1 peak area ratio, DMSO (heavy) / compound-treated (light); capped at 20; settings: for R value (DMSO/fragment) for probe 1 labeling / isoTOP-ABPP reactivity ratio at lysine O60664_K140 / isoTOP-ABPP reactivity ratio at lysine O60664_K257: 231 sol
T1 construct: isoTOP-ABPP experiments performed in cell lysates (in vitro); endogenous in cells; host or cells: MDA-MB-231 soluble lysate
T1 sequence (O60664 1-434): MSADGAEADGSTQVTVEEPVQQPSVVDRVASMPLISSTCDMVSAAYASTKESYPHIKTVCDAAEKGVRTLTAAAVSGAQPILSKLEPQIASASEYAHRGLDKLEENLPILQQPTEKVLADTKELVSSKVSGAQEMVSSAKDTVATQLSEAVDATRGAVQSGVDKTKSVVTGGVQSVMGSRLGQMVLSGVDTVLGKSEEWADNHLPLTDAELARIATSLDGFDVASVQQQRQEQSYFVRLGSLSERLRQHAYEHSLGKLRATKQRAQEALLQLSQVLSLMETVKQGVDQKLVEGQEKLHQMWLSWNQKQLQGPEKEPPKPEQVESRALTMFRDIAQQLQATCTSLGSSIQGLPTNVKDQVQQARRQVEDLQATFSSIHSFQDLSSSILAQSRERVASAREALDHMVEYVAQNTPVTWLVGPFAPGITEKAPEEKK
Description: In vitro covalent fragment treatment for isoTOP-ABPP. All compounds were made up as solutions in DMSO (100×) and were used at a final concentration of 50 μM for activated esters and 100 μM for guanidinylating agents. For each profiling sample, 0.5 ml of lysate was treated with 5 μl of the 100× compound stock solution or 5 μl of DMSO. Samples were treated with activated esters for
STP-alkyne labeling and click chemistry. For concentration-dependent reactivity measurements by isoTOP-ABPP, 0.5 ml proteome aliquots were treated at ambient temperature with 1 mM STP-alkyne 1 (5 μl of 100 mM stock in DMSO) and 0.1 mM STP alkyne 1 (5 μl of 10 mM stock in DMSO), respectively. For competitive isoTOP-ABPP, after in vitro fragment treatment (detailed above), the samples were labeled for 1 h at ambient temperature with 0.1 mM STP-alkyne 1 (5 μl of 10 mM stock in DMSO). Samples were conjugated by copper-mediated azide-alkyne cycloaddition (CuAAC) to either the light (1 mM STP-alkyne or fragment treated) or heavy (0.1 mM STP-alkyne or DMSO treated) TEV tags (10 μl of 5 mM stocks in DMSO, final concentration=100 μM) using tris(2-carboxyethyl)phosphine hydrochloride
R value calculation and processing. The ratios of light and heavy MS1 peaks for each unique peptide were quantified with a CIMAGE software using default parameters (3 MS1 acquisitions per peak and signal to noise threshold set to 2.5). For reactivity measurements by isoTOP-ABPP, the R value was calculated from the ratio of MS1 peak areas, comparing the 1 mM STP alkyne sample (light TEV tag) with the 0.1 mM STP alkyne sample (heavy TEV tag). For competitive isoTOP-ABPP, the R value was calculated from the ratio of MS1 peak areas, comparing the DMSO treated sample (heavy TEV tag) with the compound treated sample (light TEV tag). […] Ratios for unique peptide entries are calculated for each experiment; overlapping peptides with the same modified lysine (for example, different charge states, MudPIT chromatographic steps or tryptic termini) are grouped together and the median ratio is reported as the final ratio (R). The peptide ratios reported by CIMAGE were further filtered to ensure the removal or correction of low-quality ratios in each individual data set. The quality filters applied were the following: removal of half tryptic peptides; for ratios with high standard deviations from the median (90% of the median or above) the lowest ratio was taken instead of the median; removal of peptides with R=20 and only a single MS2 event triggered during the elution of the parent ion; manual annotation of all the peptides with ratios of 20, removing any peptides with low quality elution profiles that remained after the previous curation steps (only done for competitive isoTOP-ABPP).
Cross-data processing for fragment screening. For compound treated samples, biological replicates of the same condition were averaged, if the standard deviation was below 60% of the mean; otherwise, for lysines with at least one R value <4 for a particular compound, the lowest value of the ratio set was taken. For lysines, where all R values for a particular compound were ≥4, the average was reported. For peptides containing several possible modified lysines, the lysine with the highest number of quantification events was used for analysis and the remaining, redundant peptides were reported as alternative modification sites. Peptides included in the aggregate dataset (those used for further bioinformatics and statistical analyses) were required to have been quantified in 2 experiments for competitive isoTOP-ABPP. Lysines were categorized as liganded, if they had at least one ratio R≥4 (hit fragments). For liganded lysines with R=20 for all liganding events, lysines were required to have been quantified with R=20 in two separate experiments and were further required to have been quantified with R<20 in one additional experiment.

[1] = target: T2, CNOT4 CCR4-NOT transcription complex subunit 4 (Homo sapiens, UniProt O95628); test: competitive isoTOP-ABPP; type: binding; settings: for R value (DMSO/fragment) for probe 1 labeling: O95628_K134; for R value (DMSO/fragment) for probe 1 labeling / isoTOP-ABPP ratio (R) at liganded lysine O95628_K134 / isoTOP-ABPP reactivity ratio at lysine O95628_K134: 50 uM, in vitro; for R value (DMSO/fragment) for probe 1 labeling / isoTOP-ABPP reactivity ratio at lysine O95628_K134: 231 sol; for isoTOP-ABPP ratio (R) at liganded lysine O95628_K134: sol, 231; for isoTOP-ABPP ratio, lysine O95628_K134: 50 uM_231_sol_in vitro
T2 construct: isoTOP-ABPP experiments performed in cell lysates (in vitro); endogenous in cells; host or cells: MDA-MB-231 soluble lysate
T2 sequence (O95628 1-575): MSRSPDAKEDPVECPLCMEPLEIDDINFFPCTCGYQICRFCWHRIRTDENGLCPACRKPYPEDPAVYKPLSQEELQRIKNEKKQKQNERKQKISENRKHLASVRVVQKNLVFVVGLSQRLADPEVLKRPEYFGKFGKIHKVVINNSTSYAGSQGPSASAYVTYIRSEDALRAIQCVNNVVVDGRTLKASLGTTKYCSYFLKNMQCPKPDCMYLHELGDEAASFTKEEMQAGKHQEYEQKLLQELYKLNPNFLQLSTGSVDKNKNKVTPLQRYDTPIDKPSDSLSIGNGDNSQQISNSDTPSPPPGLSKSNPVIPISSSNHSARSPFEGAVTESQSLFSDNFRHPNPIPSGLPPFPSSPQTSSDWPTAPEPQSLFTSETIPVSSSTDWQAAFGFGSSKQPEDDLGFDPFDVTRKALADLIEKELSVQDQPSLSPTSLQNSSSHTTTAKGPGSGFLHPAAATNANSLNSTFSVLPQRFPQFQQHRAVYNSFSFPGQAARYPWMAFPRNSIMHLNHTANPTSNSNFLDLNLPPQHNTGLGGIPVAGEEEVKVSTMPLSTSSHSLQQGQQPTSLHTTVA
Outline: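 Competition format: fragment (50 μM activated ester, 100 μM guanidinylating agent) versus vehicle in lysate, then lysine probe STP-alkyne at 0.1 mM for 1 h. Quantitation by light/heavy TEV-tag MS1 peak areas, reported as R.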

SMILES: O=C(CCc1cn(-c2ccccc2)nc1-c1ccccc1)Oc1c(F)c(F)c(F)c(F)c1F [fragment 19, Pentafluorophenyl 3-(1,3-diphenyl-1H-pyrazol-4-yl)propanoate]
R value (DMSO/fragment) for probe 1 labeling [1]: 1.1
R value (DMSO/fragment) for probe 1 labeling (PLIN3 Perilipin-3; O60664_K140, 50 uM, in vitro): 1.5
R value (DMSO/fragment) for probe 1 labeling (PLIN3 Perilipin-3; O60664_K257, 50 uM, in vitro): 2.2

SMILES: O=C(Oc1ccc([N+](=O)[O-])cc1[N+](=O)[O-])C(c1ccccc1)(c1ccccc1)c1ccccc1 [fragment 42, 2,4-Dinitrophenyl 2,2,2-triphenylacetate]
isoTOP-ABPP ratio (R) at liganded lysine O95628_K134 [1]: 1.0
isoTOP-ABPP ratio (R) at liganded lysine O60664_K140 (PLIN3 Perilipin-3; 50 uM, in vitro, sol, 231): 0.9
isoTOP-ABPP ratio (R) at liganded lysine O60664_K257 (PLIN3 Perilipin-3; 50 uM, in vitro, sol, 231): 0.9

SMILES: O=C(Oc1c(F)c(F)c(F)c(F)c1F)c1cc(C(F)(F)F)cc(C(F)(F)F)c1 [fragment 21, Pentafluorophenyl 3,5-bis(trifluoromethyl)benzoate]
R value (DMSO/fragment) for probe 1 labeling [1]: 1.2
R value (DMSO/fragment) for probe 1 labeling (PLIN3 Perilipin-3; O60664_K257, 50 uM, in vitro): 2.0

SMILES: CC(C)(C)OC(=O)NCCCC(=O)Oc1ccc([N+](=O)[O-])cc1[N+](=O)[O-] [fragment 41, 2,4-Dinitrophenyl 4-((tert-butoxycarbonyl)amino)butanoate]
isoTOP-ABPP ratio (R) at liganded lysine O95628_K134 [1]: 1.3
isoTOP-ABPP ratio (R) at liganded lysine O60664_K140 (PLIN3 Perilipin-3; 50 uM, in vitro, sol, 231): 2.1

SMILES: O=C(Oc1ccc([N+](=O)[O-])cc1[N+](=O)[O-])C1CCN(C(=O)OCc2ccccc2)CC1 [fragment 34, 1-Benzyl 4-(2,4-dinitrophenyl) piperidine-1,4-dicarboxylate]
isoTOP-ABPP ratio (R) at liganded lysine O95628_K134 [1]: 1.1

SMILES: O=C(CCc1cn(-c2ccccc2)nc1-c1ccccc1)Oc1ccc([N+](=O)[O-])cc1[N+](=O)[O-] [fragment 29, 2,4-Dinitrophenyl 3-(1,3-diphenyl-1H-pyrazol-4-yl)propanoate]
isoTOP-ABPP reactivity ratio at lysine O95628_K134 [1]: 1.1
isoTOP-ABPP reactivity ratio at lysine O60664_K140 (PLIN3 Perilipin-3; 50 uM, in vitro): 2.1
isoTOP-ABPP reactivity ratio at lysine O60664_K257 (PLIN3 Perilipin-3; 50 uM, in vitro): 3.5

The next lines start with the values.

isoTOP-ABPP ratio, lysine O60664_K140 (PLIN3 Perilipin-3; 50 uM_231_sol_in vitro): 1.3
SMILES: O=C(Oc1c(F)c(F)cc(F)c1F)c1cc(C(F)(F)F)cc(C(F)(F)F)c1 [fragment 48, 2,3,5,6-Tetrafluorophenyl 3,5-bis(trifluoromethyl)benzoate]

isoTOP-ABPP ratio, lysine O95628_K134 [1]: 1.5
SMILES: O=C(Oc1c(F)c(F)c(C(F)(F)F)c(F)c1F)c1cc(C(F)(F)F)cc(C(F)(F)F)c1 [fragment 47, 2,3,5,6-Tetrafluoro-4-(trifluoromethyl)phenyl 3,5-bis(trifluoromethyl)benzoate]

isoTOP-ABPP reactivity ratio at lysine O95628_K134 [1]: 1.1
isoTOP-ABPP reactivity ratio at lysine O60664_K140 (PLIN3 Perilipin-3; 50 uM, in vitro): 1.2
isoTOP-ABPP reactivity ratio at lysine O60664_K257 (PLIN3 Perilipin-3; 50 uM, in vitro): 4.1
SMILES: O=C(CCc1coc2cc(F)ccc2c1=O)Oc1c(F)c(F)c(F)c(F)c1F [fragment 26, Pentafluorophenyl 3-(7-fluoro-4-oxo-4H-chromen-3-yl)propanoate]

isoTOP-ABPP ratio, lysine O95628_K134 [1]: 0.9
isoTOP-ABPP ratio, lysine O60664_K257 (PLIN3 Perilipin-3; 50 uM_231_sol_in vitro): 1.0
SMILES: NC(=O)c1cc(C(F)(F)F)cc(C(F)(F)F)c1 [fragment 51, reference compound]
